# Data from patent US20180250403A1, “CONJUGATES” (AGENCY FOR SCIENCE, TECHNOLOGY AND RESEARCH, priority 2015, published 2018).
# Tested on: B16F10 cells
# Assay: Cell proliferation / cytotoxicity (Incucyte) with and without light irradiation
# Type: cell-based, murine
# Settings: B16F10, 10 uM
# Method: Murine melanoma B16F10 cells were seeded at 3000-4000 cells per well in 96 well black view plate Perkin Elmer plates in DMEM media without phenol, as phenol red may interfere in the absorption of light. After overnight incubation, media was aspirated from the wells and varying concentrations of photosensitizers were added to the cells. Cells were incubated for 4 hours in dark at 37° C., after 4 hours cells were washed twice with 1×PBS and 300 μL of media was added to the wells before placing the plates in Incucyte ZOOM Live cell imaging machine to capture the images after every hour. Percentage confluence was measured over a time period. Similar approach was taken for keratinocyte cell lines NTERT-1 except the starting confluence was 75-85%. This is to mimic the physiological situation in the body where keratinocytes are present in much larger numbers than melanocytes. […]
# Mouse melanoma cells B16-F10, human skin keratinocytes N-TERT-1 and primary human melanocytes MeL at cell densities of 4000 cells/well, 6000 cells/well and 3500 cells/well respectively were seeded to achieve similar starting confluence in 96-black Perkin-Elmer well plate in DMEM medium without phenol red (for B16F10 and MeL) and KSFM media (for N/TERT-1 cells) and kept for overnight at 37° C. […] Percentage confluence was measured over a time period. […]
smiles,measurement,value
"CN(C)c1ccc2nc3ccc(=[N+](C)C)cc-3sc2c1 [MB, methylene blue]",cytotoxicity in dark,no cytotoxicity
